Measured values from patent publication US6362369B1, “Phthalic acid diamide derivatives fluorine-containing aniline compounds as starting material, agricultural and horticultural insecticides, and a method for application of the insecticides” (Nihon Nohyaku Co., Ltd., priority 1997, dated 2002).

Assays:
[1] = test system: rice leafroller (Cnaphalocrocis medinalis); assay: Insecticidal effect on rice leafroller (Test Example 3); format: in vivo; conditions: 500 ppm, 25° C., humidity 70%; for Insecticidal effect on rice leafroller (Test Example 3), judged grade / Insecticidal effect (Test Example 3), judged from mortality: rice lamina dip; for Insecticidal effect on rice leafroller (Test Example 3), judged grade: third-instar larvae; for Insecticidal effect on rice leafroller (Test Example 3), judged grade / Insecticidal effect, Test Example 3: four days after inoculation; for Insecticidal effect (Test Example 3), judged from mortality: 4 days after inoculation; for Insecticidal effect, Test Example 3: rice lamina immersed
Outline: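 Groups of 10 third-instar larvae, in triplicate, are placed on air-dried lamina resting on wet filter paper. Incubation runs four days at 25° C with 70% humidity before survivors and dead are tallied.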

[2] = test system: diamondback moth (Plutella xylostella); assay: Insecticidal effect on diamondback moth (Test Example 1); format: in vivo; conditions: for Insecticidal effect on diamondback moth (Test Example 1), judged grade: mortality judged according to the criterion shown in Test Example 1; for Insecticidal effect (Test Example 1), judged from mortality / Insecticidal effect, Test Example 1: diamondback moth; for Insecticidal effect (Test Example 1), judged from mortality: judged by the criterion of Test Example 1
Outline: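 Chinese cabbage seedlings carrying eggs laid by released adult moths were immersed in treatment, air-dried and held at 25° C. Hatched insects were counted six days after immersion, and mortality was calculated and scored against a fixed criterion. Three replicate groups of 10 insects were used.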

[3] = third-instar larvae of rice leafroller
[4] = judged by the mortality criterion of Test Example 1
[5] = rice leafroller third-instar larvae
[6] = mortality judged by criterion of Test Example 1

COc1cccc(C(=O)NC(C)C)c1C(=O)Nc1ccc(OC(F)(F)F)cc1 [compound 769]
Insecticidal effect on rice leafroller (Test Example 3), judged grade [1]: D (79-50) | Insecticidal effect on diamondback moth (Test Example 1), judged grade [2]: A (100)

CC(C)(C)NC(=O)c1c(I)cccc1C(=O)Nc1c(Cl)cc(Cl)c2c1OC(F)(F)O2 [compound 1748]
Insecticidal effect (Test Example 3), judged from mortality [1, 3]: A (100) | Insecticidal effect (Test Example 1), judged from mortality [2]: A (100)

Cc1cc(OC(F)F)ccc1NC(=O)c1cccc([N+](=O)[O-])c1C(=O)NC1CCCC1 [compound 856]
Insecticidal effect on rice leafroller (Test Example 3), judged grade [1]: D (79-50) | Insecticidal effect on diamondback moth (Test Example 1), judged grade [2]: A (100)

CCCNC(=O)c1c(Cl)cccc1C(=O)Nc1ccc(C(F)(F)C(F)(F)F)cc1Cl [compound 1492]
Insecticidal effect (Test Example 3), judged from mortality [1, 3]: A (100) | Insecticidal effect (Test Example 1), judged from mortality [2]: A (100)

Cc1cc(OC(C)C)ccc1NC(=O)c1cccc(I)c1C(=O)NC(C)C [compound 377]
Insecticidal effect, Test Example 3 [1, 3]: A (100) | Insecticidal effect, Test Example 1 [2, 4]: A (100)

Cc1cccc(CNC(=O)c2cccc(Cl)c2C(=O)Nc2ccc(C(F)(F)C(F)(F)F)cc2C)c1 [compound 1340]
Insecticidal effect, Test Example 3 [1, 5]: A (100) | Insecticidal effect, Test Example 1 [2, 6]: A (100)

Cc1cc(F)ccc1NC(=O)c1c(Br)cccc1C(=O)NC(C)C [compound 314]
Insecticidal effect, Test Example 3 [1, 3]: A (100) | Insecticidal effect, Test Example 1 [2, 4]: A (100)

C=CCON=C(C)c1ccc(NC(=O)c2cccc(I)c2C(=O)NC(C)C)cc1 [compound 1750]
Insecticidal effect (Test Example 3), judged from mortality [1, 3]: A (100) | Insecticidal effect (Test Example 1), judged from mortality [2]: A (100)

Cc1cc(NC(=O)c2cccc([N+](=O)[O-])c2C(=O)NC(C)C)ccc1Br [compound 680]
Insecticidal effect on rice leafroller (Test Example 3), judged grade [1]: D (79-50) | Insecticidal effect on diamondback moth (Test Example 1), judged grade [2]: A (100)

Cc1ccc(Cl)cc1NC(=O)c1cc(OC(F)F)ccc1C(=O)NC(C)C [compound 776]
Insecticidal effect on rice leafroller (Test Example 3), judged grade [1]: D (79-50) | Insecticidal effect on diamondback moth (Test Example 1), judged grade [2]: B (99-90)

Cc1cc(OC(F)(F)C(F)OC(F)(F)F)ccc1NC(=O)c1cccc(F)c1C(=O)NC(C)C (stereo not shown) [compound 515]
Insecticidal effect on rice leafroller (Test Example 3), judged grade [1]: C (89-80) | Insecticidal effect on diamondback moth (Test Example 1), judged grade [2]: A (100)

Cc1ccc(Cl)cc1NC(=O)c1ccc(Cl)cc1C(=O)NC(C)C [compound 178]
Insecticidal effect, Test Example 3 [1, 3]: A (100) | Insecticidal effect, Test Example 1 [2, 4]: A (100)

CC(C)NC(=O)c1c(C(=O)Nc2cccc(SC(F)(F)F)c2)cccc1[N+](=O)[O-] [compound 623]
Insecticidal effect on rice leafroller (Test Example 3), judged grade [1]: A (100) | Insecticidal effect on diamondback moth (Test Example 1), judged grade [2]: A (100)

CC(C)NC(=O)c1cccc(I)c1C(=O)Nc1ccc(I)cc1 [compound 413]
Insecticidal effect, Test Example 3 [1, 3]: C (89-80) | Insecticidal effect, Test Example 1 [2, 4]: A (100)

CCc1cc(OC(F)(F)F)ccc1NC(=O)c1ccccc1C(=O)NC(C)C [compound 1208]
Insecticidal effect, Test Example 3 [1, 5]: A (100) | Insecticidal effect, Test Example 1 [2, 6]: A (100)

Cc1cc(SC(C)C)ccc1NC(=O)c1cccc(Cl)c1C(=O)NC(C)C [compound 153]
Insecticidal effect, Test Example 3 [1, 3]: D (79-50) | Insecticidal effect, Test Example 1 [2, 4]: A (100)

CC(C)NC(=O)c1ccccc1C(=O)Nc1ccc([S+]([O-])C(F)(F)F)cc1 (stereo not shown) [compound 999]
Insecticidal effect, Test Example 3 [1, 5]: A (100) | Insecticidal effect, Test Example 1 [2, 6]: A (100)

Cc1cccc(Cl)c1NC(=O)c1cccc([N+](=O)[O-])c1C(=O)NC(C)C [compound 666]
Insecticidal effect on rice leafroller (Test Example 3), judged grade [1]: D (79-50) | Insecticidal effect on diamondback moth (Test Example 1), judged grade [2]: A (100)

CSCOc1ccc(NC(=O)c2ccccc2C(=O)NC(C)C)c(C)c1 [compound 70]
Insecticidal effect, Test Example 3 [1, 3]: A (100) | Insecticidal effect, Test Example 1 [2, 4]: A (100)

CC(C)NC(=O)c1cccc(Cl)c1C(=O)Nc1ccc(C(F)(F)F)cc1Cl [compound 220]
Insecticidal effect, Test Example 3 [1, 3]: A (100) | Insecticidal effect, Test Example 1 [2, 4]: A (100)

Cc1cc(OC(C)C)ccc1NC(=O)c1cccc([N+](=O)[O-])c1C(=O)NC(C)C [compound 690]
Insecticidal effect on rice leafroller (Test Example 3), judged grade [1]: A (100) | Insecticidal effect on diamondback moth (Test Example 1), judged grade [2]: A (100)

CCN(Cc1ccccc1)C(=O)c1c(Cl)cccc1C(=O)Nc1ccc(C(F)(F)C(F)(F)F)cc1C [compound 1457]
Insecticidal effect (Test Example 3), judged from mortality [1, 3]: A (100) | Insecticidal effect (Test Example 1), judged from mortality [2]: A (100)

Cc1ccc(Cl)cc1NC(=O)c1c(F)cccc1C(=O)NC(C)C [compound 546]
Insecticidal effect on rice leafroller (Test Example 3), judged grade [1]: A (100) | Insecticidal effect on diamondback moth (Test Example 1), judged grade [2]: A (100)

Cc1cc(Cl)ccc1NC(=O)c1cc(F)ccc1C(=O)NC(C)C [compound 532]
Insecticidal effect on rice leafroller (Test Example 3), judged grade [1]: A (100) | Insecticidal effect on diamondback moth (Test Example 1), judged grade [2]: A (100)

CC(C)NC(=O)c1c(C(=O)Nc2ccccc2Cl)cccc1[N+](=O)[O-] [compound 586]
Insecticidal effect on rice leafroller (Test Example 3), judged grade [1]: D (79-50) | Insecticidal effect on diamondback moth (Test Example 1), judged grade [2]: A (100)

CC(C)NC(=O)c1c(C(=O)Nc2ccccc2Br)cccc1[N+](=O)[O-] [compound 589]
Insecticidal effect on rice leafroller (Test Example 3), judged grade [1]: A (100) | Insecticidal effect on diamondback moth (Test Example 1), judged grade [2]: A (100)

CC(C)NC(=O)c1cccc(Cl)c1C(=O)Nc1cccc([S+]([O-])C(F)(F)F)c1 (stereo not shown) [compound 206]
Insecticidal effect, Test Example 3 [1, 3]: A (100) | Insecticidal effect, Test Example 1 [2, 4]: A (100)

CC(C)NC(=O)c1ccc(Cl)cc1C(=O)Nc1ccc(F)c(F)c1 [compound 188]
Insecticidal effect, Test Example 3 [1, 3]: D (79-50) | Insecticidal effect, Test Example 1 [2, 4]: D (79-50)

Cc1cc(OC(F)(F)C(F)F)c(Cl)cc1NC(=O)c1cccc([N+](=O)[O-])c1C(=O)NC(C)C [compound 718]
Insecticidal effect on rice leafroller (Test Example 3), judged grade [1]: A (100) | Insecticidal effect on diamondback moth (Test Example 1), judged grade [2]: A (100)

Cc1cc(C(F)(F)C(F)(F)F)ccc1NC(=O)c1c(Cl)cccc1C(=O)NCc1ccc(Cl)c(Cl)c1 [compound 1352]
Insecticidal effect, Test Example 3 [1, 5]: A (100) | Insecticidal effect, Test Example 1 [2, 6]: A (100)

Cc1cc(Cl)ccc1NC(=O)c1cccc(C(=O)NC(C)C)c1C(=O)NC(C)C [compound 803]
Insecticidal effect on rice leafroller (Test Example 3), judged grade [1]: A (100) | Insecticidal effect on diamondback moth (Test Example 1), judged grade [2]: A (100)

Cc1cc(OC(F)(F)C(F)F)ccc1NC(=O)c1c(F)cccc1C(=O)NC(C)C [compound 566]
Insecticidal effect on rice leafroller (Test Example 3), judged grade [1]: B (99-90) | Insecticidal effect on diamondback moth (Test Example 1), judged grade [2]: A (100)

CCc1ccccc1NC(=O)c1cccc([N+](=O)[O-])c1C(=O)NC(C)C [compound 602]
Insecticidal effect on rice leafroller (Test Example 3), judged grade [1]: A (100) | Insecticidal effect on diamondback moth (Test Example 1), judged grade [2]: A (100)

Cc1cc(F)ccc1NC(=O)c1c(I)cccc1C(=O)NC(C)C [compound 432]
Insecticidal effect, Test Example 3 [1, 3]: A (100) | Insecticidal effect, Test Example 1 [2, 4]: A (100)

Cc1nc(-c2cccc(NC(=O)c3cccc(I)c3C(=O)NC(C)C)c2)co1 [compound 1659]
Insecticidal effect (Test Example 3), judged from mortality [1, 3]: A (100) | Insecticidal effect (Test Example 1), judged from mortality [2]: A (100)

CC(C)NC(=O)c1cccc(I)c1C(=O)Nc1ccc(Cl)cc1 [compound 411]
Insecticidal effect, Test Example 3 [1, 3]: A (100) | Insecticidal effect, Test Example 1 [2, 4]: A (100)

Cc1cc(C(F)(C(F)(F)F)C(F)(F)F)ccc1NC(=O)c1c(I)cccc1C(=O)NC(C)c1ccccn1 (stereo not shown) [compound 1774]
Insecticidal effect (Test Example 3), judged from mortality [1, 3]: A (100) | Insecticidal effect (Test Example 1), judged from mortality [2]: A (100)

Cc1cc(C(F)(F)C(F)(F)F)ccc1NC(=O)c1c(F)cccc1C(=O)NC(C)C [compound 551]
Insecticidal effect on rice leafroller (Test Example 3), judged grade [1]: A (100) | Insecticidal effect on diamondback moth (Test Example 1), judged grade [2]: A (100)

CC(C)NC(=O)c1c(C(=O)Nc2ccc(OC(F)(F)F)cc2Cl)cccc1[N+](=O)[O-] [compound 704]
Insecticidal effect on rice leafroller (Test Example 3), judged grade [1]: A (100) | Insecticidal effect on diamondback moth (Test Example 1), judged grade [2]: A (100)

Cc1cc(Oc2ccc(C(F)(F)F)cn2)ccc1NC(=O)c1c(F)cccc1C(=O)NC(C)C [compound 576]
Insecticidal effect on rice leafroller (Test Example 3), judged grade [1]: C (89-80) | Insecticidal effect on diamondback moth (Test Example 1), judged grade [2]: A (100)

CC(C)NC(=O)c1ccccc1C(=O)Nc1ccc2c(c1)nc(C(F)(F)F)n2C [compound 86]
Insecticidal effect, Test Example 3 [1, 3]: B (99-90) | Insecticidal effect, Test Example 1 [2, 4]: B (99-90)

COCOc1ccc(NC(=O)c2ccccc2C(=O)NC(C)C)c(C)c1 [compound 69]
Insecticidal effect, Test Example 3 [1, 3]: A (100) | Insecticidal effect, Test Example 1 [2, 4]: A (100)

CC(C)NC(=O)c1ccccc1C(=O)Nc1ccc(C(F)(F)F)cc1Cl [compound 45]
Insecticidal effect, Test Example 3 [1, 3]: A (100) | Insecticidal effect, Test Example 1 [2, 4]: A (100)

CCNC(=O)c1c(Cl)cccc1C(=O)Nc1ccc(C(F)(F)C(F)(F)F)cc1F [compound 1488]
Insecticidal effect (Test Example 3), judged from mortality [1, 3]: A (100) | Insecticidal effect (Test Example 1), judged from mortality [2]: A (100)

COCC(C)NC(=O)c1cccc(I)c1C(=O)Nc1ccc(C(F)(F)C(F)(F)F)cc1C (stereo not shown) [compound 1032]
Insecticidal effect, Test Example 3 [1, 5]: A (100) | Insecticidal effect, Test Example 1 [2, 6]: A (100)

Cc1cc(OC(F)(F)Br)ccc1NC(=O)c1c(F)cccc1C(=O)NC(C)C [compound 565]
Insecticidal effect on rice leafroller (Test Example 3), judged grade [1]: A (100) | Insecticidal effect on diamondback moth (Test Example 1), judged grade [2]: A (100)

CC(C)NC(=O)c1ccccc1C(=O)Nc1ccc(Cl)cc1F [compound 1632]
Insecticidal effect (Test Example 3), judged from mortality [1, 3]: A (100) | Insecticidal effect (Test Example 1), judged from mortality [2]: A (100)
